Assay results reported in patent US20110165277A1, “Biological Materials and Uses Thereof” (priority 2008, published 2011).
“And” between values parts separate entries of the source, which are not always exact repeats. Identical values can stand only once.

How the values were obtained:
rumen fluid [1] = test: Methane and volatile fatty acid production by buffered rumen fluid incubated with hay barley mix (Example 1); type: cell-based, cow; conditions: 500 μg/ml; 16 hours, 39° C.
Protocol: Thirty ml of a 33% buffered solution of rumen fluid withdrawn from a rumen canulated cow was incubated with 0.3 g of a 50:50 hay barley mix at 39° C. under anaerobic conditions.
(§1) After 16 hours the volume of gas produced and the percentage of methane in the headspace was measured and the resultant fermentation fluid was analysed for volatile fatty acids by HPLC.
Sandalwood oil, and control oils of commercial essential oil mixes or pure oils of eugenol or cinnamaldehyde were added in the amount of 500 μg/ml to the 30 ml buffered solution of rumen fluid prior to incubation. Sandalwood oil was obtained from Cardiff University and Sigma [SAFC (e.g. W30,050-0 lot no. 03722CC-396) and Sandalwood oil manufactured by Fluka (355263/1 lot no. 52706264).]

[2] = Further sandalwood analogues: volatile fatty acid and methane production (Example 7, Table 14); type: cell-based
Protocol: (§2) Further testing of sandalwood analogues was conducted following the protocols described in Examples 3 and 5.

[3] = Further sandalwood analogues: CH4 per bottle, compound in DMSO or ETOH (Example 7, Table 15); type: cell-based; conditions: for CH4: single bottles rep a, b, c
Protocol: as §2

rumen fluid [4] = test: Methane production by buffered rumen fluid, sandalwood oil and synthetic replacements (Example 4); type: cell-based, cow; conditions: 5, 50 or 100 or 500 pg/ml; 16 hours
Protocol: Thirty ml of a 33% buffered solution of rumen fluid withdrawn from a rumen canulated cow was incubated with 0.3 g of a 50:50 hay barley mix at 39° C. under anaerobic conditions
as §1
Sandalwood oil from either Fluka or SAFC and two different batches of Javanol (Givaudan) or a single batch of Santaliff (International Flavors & Fragrances) (both Javanol and Santaliff are artifical Sandalwood replacements) were added in the amount of 5, 50 or 100 or 500 pg/ml to the 30 ml buffered solution of rumen fluid prior to incubation.

Compound	Acetate ([2]; 5 μg/ml)	Butyrate ([2]; 5 μg/ml)	Methane ([2]; 5 μg/ml)	Propionate ([2]; 5 μg/ml)	TVFA ([2]; 5 μg/ml)	Acetate ([2]; 50 μg/ml)	Butyrate ([2]; 50 μg/ml)	Methane ([2]; 50 μg/ml)	Propionate ([2]; 50 μg/ml)	TVFA ([2]; 50 μg/ml)	Acetate ([2]; 100 μg/ml)	Butyrate ([2]; 100 μg/ml)	Methane ([2]; 100 μg/ml)	Propionate ([2]; 100 μg/ml)	TVFA ([2]; 100 μg/ml)	Acetate ([2]; 500 μg/ml)	Butyrate ([2]; 500 μg/ml)	Methane ([2]; 500 μg/ml)	Propionate ([2]; 500 μg/ml)	TVFA ([2]; 500 μg/ml)	other results
CC(C)=CCCC(C)=CC=O [Citral]	–	–	–	–	–	–	–	–	–	–	–	–	–	–	–	–	–	–	–	–	Acetate formation (rumen fluid [1]): 2754 μmole/g of feed; Butyrate formation (rumen fluid [1]): 72 μmole/g of feed; Methane formation (rumen fluid [1]): 1461 μmole/g of feed; Propionate formation (rumen fluid [1]): 534 μmole/g of feed; Total volatile fatty acids formation (rumen fluid [1]): 3361 μmole/g of feed
CC1C2CC(CC2C2CCC(O)CC2)C1(C)C (stereo not drawn) [Sandela, 4-(5,5,6-Trimethylbicyclo[2.2.1]hept-2-yl)cyclohexan-1-ol]	2223 μmol/g of feed added	482 μmol/g of feed added	996 μmol/g of feed added	465 μmol/g of feed added	3169 μmol/g of feed added	2235 μmol/g of feed added	513 μmol/g of feed added	1052 μmol/g of feed added	450 μmol/g of feed added	3198 μmol/g of feed added	2297 μmol/g of feed added	515 μmol/g of feed added	1078 μmol/g of feed added	477 μmol/g of feed added	3289 μmol/g of feed added	2270 μmol/g of feed added	317 μmol/g of feed added	928 μmol/g of feed added	680 μmol/g of feed added	3267 μmol/g of feed added	–
CCC(=CCC1CC=C(C)C1(C)C)CO (stereo not drawn) [Bacdanol, 2-ethyl-4-(2,2,3-trimethyl-3-cyclopenten-1-yl)-2-buten-1-ol]	2037 μmol/g of feed added	438 μmol/g of feed added	934 μmol/g of feed added	444 μmol/g of feed added	2919 μmol/g of feed added	2049 μmol/g of feed added	458 μmol/g of feed added	1047 μmol/g of feed added	434 μmol/g of feed added	2942 μmol/g of feed added	2419 μmol/g of feed added	514 μmol/g of feed added	995 μmol/g of feed added	515 μmol/g of feed added	3448 μmol/g of feed added	2331 μmol/g of feed added	309 μmol/g of feed added	942 μmol/g of feed added	864 μmol/g of feed added	3503 μmol/g of feed added	–
CCC(=CCC1CC=C(C)C1(C)C)CO (stereo not drawn) [Sanjinol, 2-ethyl-4(2,2,3-trimethyl-3-cyclopentenyl)-2-buten-1-ol]	1978 μmol/g of feed added	448 μmol/g of feed added	1107 μmol/g of feed added	426 μmol/g of feed added	2852 μmol/g of feed added	2192 μmol/g of feed added	466 μmol/g of feed added	835 μmol/g of feed added	579 μmol/g of feed added	3237 μmol/g of feed added	2359 μmol/g of feed added	512 μmol/g of feed added	795 μmol/g of feed added	697 μmol/g of feed added	3568 μmol/g of feed added	1849 μmol/g of feed added	225 μmol/g of feed added	741 μmol/g of feed added	744 μmol/g of feed added	2818 μmol/g of feed added	CH4 (mean of rep a-c) ([3]; 150 ug/30 ml in 200 ul DMSO): 938.5618 µmol/g; CH4 ([3]; 150 ug/30 ml in 200 ul DMSO): 1107.671 µmol/g and 793.8945 µmol/g and 914.1195 µmol/g; CH4 (mean of rep a-c) ([3]; 150 ug/30 ml in 200 ul ETOH): 1153.269 µmol/g; CH4 ([3]; 150 ug/30 ml in 200 ul ETOH): 1064.879 µmol/g and 1232.288 µmol/g and 1162.641 µmol/g; CH4 (mean of rep a-c) ([3]; 15000 ug/30 ml in 200 ul DMSO): 743.6664 µmol/g; CH4 ([3]; 15000 ug/30 ml in 200 ul DMSO): 615.569 µmol/g and 893.1559 µmol/g and 722.2742 µmol/g; CH4 (mean of rep a-c) ([3]; 15000 ug/30 ml in 200 ul ETOH): 1158.419 µmol/g; CH4 ([3]; 15000 ug/30 ml in 200 ul ETOH): 1063.899 µmol/g and 1351.649 µmol/g and 1059.708 µmol/g
C=CCc1ccc(O)c(OC)c1 [Eugenol]	–	–	–	–	–	–	–	–	–	–	–	–	–	–	–	–	–	–	–	–	Acetate formation (rumen fluid [1]): 2817 μmole/g of feed; Butyrate formation (rumen fluid [1]): 73 μmole/g of feed; Methane formation (rumen fluid [1]): 1436 μmole/g of feed; Propionate formation (rumen fluid [1]): 590 μmole/g of feed; Total volatile fatty acids formation (rumen fluid [1]): 3479 μmole/g of feed
CC1=CCC(C=CC(C)C(C)O)C1(C)C (stereo not drawn) [Ebanol, 3-Methyl-5-(2,2,3-trimethyl-3-cyclopenten-1-yl)-4-penten-2-ol]	2136 μmol/g of feed added	488 μmol/g of feed added	952 μmol/g of feed added	427 μmol/g of feed added	3051 μmol/g of feed added	2129 μmol/g of feed added	474 μmol/g of feed added	934 μmol/g of feed added	436 μmol/g of feed added	3039 μmol/g of feed added	2430 μmol/g of feed added	458 μmol/g of feed added	833 μmol/g of feed added	533 μmol/g of feed added	3421 μmol/g of feed added	2333 μmol/g of feed added	332 μmol/g of feed added	683 μmol/g of feed added	939 μmol/g of feed added	3604 μmol/g of feed added	–
CC1=CCC(CCC(C)C(C)O)C1(C)C (stereo not drawn) [Sandalore, 5-(2,2,3-Trimethyl-3-cyclopentenhyl)-3-methylpentan-2-ol]	2118 μmol/g of feed added	487 μmol/g of feed added	951 μmol/g of feed added	431 μmol/g of feed added	3036 μmol/g of feed added	1972 μmol/g of feed added	453 μmol/g of feed added	1086 μmol/g of feed added	409 μmol/g of feed added	2834 μmol/g of feed added	2119 μmol/g of feed added	432 μmol/g of feed added	1174 μmol/g of feed added	471 μmol/g of feed added	3023 μmol/g of feed added	2249 μmol/g of feed added	305 μmol/g of feed added	902 μmol/g of feed added	897 μmol/g of feed added	3451 μmol/g of feed added	–
O=CC=Cc1ccccc1 [Cinnamaldehyde]	–	–	–	–	–	–	–	–	–	–	–	–	–	–	–	–	–	–	–	–	Acetate formation (rumen fluid [1]): 2832 μmole/g of feed; Butyrate formation (rumen fluid [1]): 73 μmole/g of feed; Methane formation (rumen fluid [1]): 1471 μmole/g of feed; Propionate formation (rumen fluid [1]): 492 μmole/g of feed; Total volatile fatty acids formation (rumen fluid [1]): 3398 μmole/g of feed
CC(=CCC1CC=C(C)C1(C)C)CO (stereo not drawn) [Santaliff, 2-Methyl-4-(2,2,3-trimethyl-3-cyclopenten-1-yl)-2-buten-1-ol]	2174 μmol/g of feed added	458 μmol/g of feed added	1031 μmol/g of feed added	466 μmol/g of feed added	3098 μmol/g of feed added	2142 μmol/g of feed added	490 μmol/g of feed added	1052 μmol/g of feed added	442 μmol/g of feed added	3074 μmol/g of feed added	2301 μmol/g of feed added	462 μmol/g of feed added	844 μmol/g of feed added	543 μmol/g of feed added	3305 μmol/g of feed added	2101 μmol/g of feed added	296 μmol/g of feed added	801 μmol/g of feed added	741 μmol/g of feed added	3138 μmol/g of feed added	methane compared to the control experiments (rumen fluid [4]): significantly decreased
